Molecular target: T1, catL (cathepsin L; rh catL) (Homo sapiens, UniProt P07711)
T1 construct: gene CTSL; incubated on ice 15 min in assay buffer pH 6.0 before use
Assay: fluorogenic protease activity assay
Assay type: biochemical

T1 sequence (P07711 114-288): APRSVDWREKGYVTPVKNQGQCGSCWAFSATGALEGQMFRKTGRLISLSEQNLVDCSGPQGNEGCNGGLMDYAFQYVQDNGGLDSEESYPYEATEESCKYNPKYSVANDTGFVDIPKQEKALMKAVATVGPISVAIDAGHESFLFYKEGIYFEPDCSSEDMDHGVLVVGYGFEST
T1 sequence (P07711 292-333): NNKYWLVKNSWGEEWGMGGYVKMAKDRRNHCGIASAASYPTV

In the case of `C[C@@H]1[C@H](O)[C@@H](C)/C=C/C=C/CC/C=C/C=C/C=C/C=C/[C@H](O[C@@H]2O[C@H](C)[C@@H](O)[C@H](N)[C@@H]2O)C[C@@H]2O[C@](O)(C[C@@H](O)[C@H](O)CC[C@@H](O)C[C@@H](O)C[C@@H](O)CC(=O)O[C@H]1C)C[C@H](O)[C@H]2C(=O)O` [Nystatin], the IC50 is reported as about 2 µM.

`CO[C@H]1/C=C/O[C@@]2(C)Oc3c(C)c(O)c4c(O)c(c(/C=N/N5CCN(C6CCCC6)CC5)c(O)c4c3C2=O)NC(=O)/C(C)=C\C=C\[C@H](C)[C@H](O)[C@@H](C)[C@@H](O)[C@@H](C)[C@H](OC(C)=O)[C@@H]1C` [Rifapentine] showed an IC50 of about 30 µM.

Source: paper PMC9231362 (Viruses, 2022)
